One block for each compound: values may come before it. The source made the active and inactive calls.
Columns and labels:
[1] = biological target: T1, Mannose-6-phosphate isomerase (Homo sapiens, UniProt P34949); assay: inhibitors of human PMI, primary screen, biochemical, fluorescence intensity, coupled assay (AID 1209)
T1 sequence (P34949 whole entry): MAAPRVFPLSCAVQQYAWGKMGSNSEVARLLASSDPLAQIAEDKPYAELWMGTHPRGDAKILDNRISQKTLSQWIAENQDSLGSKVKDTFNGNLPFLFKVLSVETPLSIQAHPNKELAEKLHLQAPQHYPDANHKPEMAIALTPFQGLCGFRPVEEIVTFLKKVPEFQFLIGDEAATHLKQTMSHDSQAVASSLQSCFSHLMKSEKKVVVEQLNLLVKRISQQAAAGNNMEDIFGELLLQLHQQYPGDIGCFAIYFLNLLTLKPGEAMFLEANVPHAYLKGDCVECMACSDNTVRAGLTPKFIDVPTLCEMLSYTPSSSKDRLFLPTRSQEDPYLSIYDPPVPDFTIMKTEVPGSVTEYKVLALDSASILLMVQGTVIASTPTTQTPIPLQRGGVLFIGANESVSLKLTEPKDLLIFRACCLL

[2] = biological target: T1, Mannose-6-phosphate isomerase; assay: PMI enzyme inhibitors, confirmation, biochemical, fluorescence intensity (AID 1535)
Phosphomannomutase 2 = Phosphomannomutase 2 (Homo sapiens, UniProt O15305); assay: Counter screen SAR assay for PMM2 inhibitors via a fluorescence intensity assay. [Related pubchem assays (depositor defined):AID1545, AID1574]
[3] = biological target: T2, Beta-adrenergic receptor kinase 1 (Homo sapiens, UniProt P25098); assay: GRK2 inhibitors displacing RNA aptamer, dose response, biochemical, flow cytometry beads, FAM-aptamer, powder set 1 (AID 588720)
T2 sequence (P25098 whole entry): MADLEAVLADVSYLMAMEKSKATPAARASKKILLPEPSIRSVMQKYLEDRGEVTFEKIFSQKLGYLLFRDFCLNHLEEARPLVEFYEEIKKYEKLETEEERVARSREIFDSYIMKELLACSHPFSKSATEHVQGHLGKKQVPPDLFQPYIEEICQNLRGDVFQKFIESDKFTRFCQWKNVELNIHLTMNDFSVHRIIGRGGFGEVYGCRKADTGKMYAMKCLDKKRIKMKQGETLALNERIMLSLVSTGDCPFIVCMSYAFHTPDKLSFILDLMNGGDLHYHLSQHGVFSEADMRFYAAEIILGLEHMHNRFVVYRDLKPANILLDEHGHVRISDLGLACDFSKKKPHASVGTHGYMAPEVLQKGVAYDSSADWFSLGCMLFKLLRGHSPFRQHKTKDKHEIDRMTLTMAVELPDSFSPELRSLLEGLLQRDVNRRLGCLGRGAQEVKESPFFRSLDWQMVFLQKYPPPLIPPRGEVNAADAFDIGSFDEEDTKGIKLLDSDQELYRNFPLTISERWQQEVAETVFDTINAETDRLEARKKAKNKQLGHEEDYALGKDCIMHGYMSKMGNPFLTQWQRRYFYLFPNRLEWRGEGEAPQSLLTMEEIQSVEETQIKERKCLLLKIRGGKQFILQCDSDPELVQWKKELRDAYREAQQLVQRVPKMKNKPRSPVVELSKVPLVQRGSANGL

[4] = biological target: Lysine-specific demethylase 4A (Homo sapiens, UniProt O75164); assay: JMJD2A histone demethylase inhibitors, dose response, selectivity assay for GASC-1 inhibitor project, biochemical, DELFIA europium, cherry-picked samples (AID 488840)
Chain of Lysine-specific demethylase 4A (O75164 whole entry): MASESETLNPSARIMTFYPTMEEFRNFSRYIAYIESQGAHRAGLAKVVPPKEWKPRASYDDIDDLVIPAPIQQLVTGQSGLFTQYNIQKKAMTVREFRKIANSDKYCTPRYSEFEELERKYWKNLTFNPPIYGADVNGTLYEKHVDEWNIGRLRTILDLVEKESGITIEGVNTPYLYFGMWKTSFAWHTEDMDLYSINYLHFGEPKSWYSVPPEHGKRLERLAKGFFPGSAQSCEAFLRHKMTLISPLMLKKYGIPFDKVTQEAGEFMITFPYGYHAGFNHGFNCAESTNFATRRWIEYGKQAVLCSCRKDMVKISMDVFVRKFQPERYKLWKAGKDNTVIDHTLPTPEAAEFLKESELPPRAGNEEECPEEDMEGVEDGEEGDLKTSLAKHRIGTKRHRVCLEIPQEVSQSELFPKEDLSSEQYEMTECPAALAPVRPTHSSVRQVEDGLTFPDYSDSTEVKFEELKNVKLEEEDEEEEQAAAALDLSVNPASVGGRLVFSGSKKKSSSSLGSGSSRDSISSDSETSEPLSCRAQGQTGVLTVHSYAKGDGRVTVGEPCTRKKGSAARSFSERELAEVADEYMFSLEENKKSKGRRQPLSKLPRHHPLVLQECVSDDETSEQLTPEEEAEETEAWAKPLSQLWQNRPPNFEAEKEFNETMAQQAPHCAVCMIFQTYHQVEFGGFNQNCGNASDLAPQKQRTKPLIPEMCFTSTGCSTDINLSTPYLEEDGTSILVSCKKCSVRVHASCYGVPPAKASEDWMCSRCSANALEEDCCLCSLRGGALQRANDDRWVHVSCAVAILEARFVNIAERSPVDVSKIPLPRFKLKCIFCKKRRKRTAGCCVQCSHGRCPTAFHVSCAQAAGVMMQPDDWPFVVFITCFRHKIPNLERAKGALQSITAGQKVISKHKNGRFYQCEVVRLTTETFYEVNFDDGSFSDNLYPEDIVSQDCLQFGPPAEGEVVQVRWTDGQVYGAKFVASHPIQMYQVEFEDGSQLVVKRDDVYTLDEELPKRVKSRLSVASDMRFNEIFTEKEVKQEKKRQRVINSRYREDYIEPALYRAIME

Chain of Phosphomannomutase 2 (O15305 whole entry): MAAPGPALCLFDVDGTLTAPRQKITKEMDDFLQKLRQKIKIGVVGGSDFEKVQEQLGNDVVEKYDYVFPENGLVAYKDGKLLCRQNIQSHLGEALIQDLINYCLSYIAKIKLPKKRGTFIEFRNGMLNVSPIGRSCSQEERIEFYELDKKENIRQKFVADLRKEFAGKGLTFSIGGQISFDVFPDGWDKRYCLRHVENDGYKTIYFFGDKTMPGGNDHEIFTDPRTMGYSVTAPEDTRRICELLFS

IC50 [1]: 16 µM (active)
IC50 [2]: 36.9 µM (active)
IC50 (Phosphomannomutase 2): > 100 µM (inactive)
Compound: N#CC1=C2SCN(Cc3ccccc3)CN2C(=O)CC1c1ccc2c(c1)OCO2 (stereo not given)

EC50 [3]: 22.3 µM (inactive)
Compound: Cc1cccc(CCNC(=O)CCS(=O)(=O)c2ccc(Br)cc2)c1

AC50 [4]: 9.18 µM (active)
Compound: O=c1n(Cc2ccccc2)c2cc(Cl)cnc2n1Cc1ccccc1
